According to BindingDB's records for patent US20230357253 (The Scripps Research Institute, 2023):

Each compound was assayed against Stimulator of interferon genes protein (Homo sapiens, UniProt Q86WV6) (assay: WT STING Binding Assay).
Method: Upon proximity of the two dyes, the excitation of the donor by the flash lamp on the PHERAstar FSX plate reader triggers a Fluorescence Resonance Energy Transfer (FRET) towards the acceptor, which in turn fluoresces at 665 nm. To assess the ability of the synthetic small molecule STING ligands to bind to human STING, a competitive assay format was applied. A 10-point titration of each of the synthetic ligands in 5 uL were transferred into a 384 well plate, followed by 20 uL of assay buffer containing the 6×His-tagged human STING protein and labeled 2′3′cGAMP ligand and incubated for three hours at room temperature. The raw values obtained from the PHERAstar were used to calculate the reported IC50 values (the signal is inversely proportional to the binding of the synthetic ligand) through curve fitting in Genedata. The percent inhibition was calculated based upon the maximal amount of binding by synthetic compound versus the maximum binding of unlabeled 2′3′ cGAMP which was used as a control in each assay.

Stimulator of interferon genes protein, sequence (Q86WV6 whole entry): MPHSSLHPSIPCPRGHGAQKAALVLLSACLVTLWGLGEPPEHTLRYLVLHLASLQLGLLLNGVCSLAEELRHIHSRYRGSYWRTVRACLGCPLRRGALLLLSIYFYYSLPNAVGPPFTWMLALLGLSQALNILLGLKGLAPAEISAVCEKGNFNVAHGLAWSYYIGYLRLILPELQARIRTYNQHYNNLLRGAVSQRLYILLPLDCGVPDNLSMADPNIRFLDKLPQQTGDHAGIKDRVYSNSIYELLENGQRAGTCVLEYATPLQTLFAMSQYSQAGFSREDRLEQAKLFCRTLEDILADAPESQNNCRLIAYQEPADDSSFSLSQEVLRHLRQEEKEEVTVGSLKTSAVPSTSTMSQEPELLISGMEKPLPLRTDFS

Compared with `O=C(Nc1cc(CCCc2cc(C(=O)O)c(NC(=O)c3ccc4nnnn4n3)cc2F)c(N2CCOCC2)cc1C(=O)O)c1ccc(-n2ccnc2)nn1` [US20230357253, Compound 108], `O=C(Nc1cc(CCCc2cc(C(=O)O)c(NC(=O)c3ccc4nnnn4n3)cc2F)c(F)cc1C(=O)O)c1ccc(-n2ccnc2)nn1` [US20230357253, Compound 90] is lower in IC50: > 1 µM for the first, < 0.01 µM for the second. The second is the more potent here.

`O=C(Nc1cc(OCCCOc2cc(C(=O)O)c(NC(=O)c3ccc(-n4ccnc4)nn3)cc2F)c(F)cc1C(=O)O)c1ccc(-n2ccnc2)nn1` [US20230357253, Compound 10] and `O=C(Nc1cc(OCCCOc2cc(NC(=O)c3ccc(-n4ccnc4)nn3)c(C(=O)O)cc2F)c(F)cc1C(=O)O)c1ccc(-n2ccnc2)nn1` [US20230357253, Compound 168] cannot be ordered by IC50: < 0.01 µM for the first, < 0.01 µM for the second.

`COc1cc(C(=O)O)c(NC(=O)c2ccc(-n3ccnc3)nn2)cc1CCCc1ccc(C(=O)O)c(NC(=O)c2ccc(-n3ccnc3)nn2)c1` [US20230357253, Compound 56] and `O=C(Nc1cc(CCCc2cc(NC(=O)c3ccc(-n4ccnc4)nn3)c(C(=O)O)cc2Cl)ccc1C(=O)O)c1ccc(-n2ccnc2)nn1` [US20230357253, Compound 66] cannot be ordered by IC50: < 0.01 µM for the first, < 0.01 µM for the second.

`N#Cc1cc(C(=O)O)c(NC(=O)c2ccc(-n3ccnc3)nn2)cc1CCOc1cc(NC(=O)c2ccc(-n3ccnc3)nn2)c(C(=O)O)cc1F` [US20230357253, Compound 162] and `O=C(Nc1cc(OCCc2cc(C(=O)O)c(NC(=O)c3ccc(-n4ccnc4)nn3)cc2F)c(F)cc1C(=O)O)c1ccc(-n2ccnc2)nn1` [US20230357253, Compound 144] cannot be ordered by IC50: < 0.01 µM for the first, < 0.01 µM for the second.

`O=C(Nc1cc(CCCc2ccc(NC(=O)c3ccc4nnnn4n3)c(C(=O)O)c2)ccc1C(=O)O)c1ccc2nnnn2n1` [US20230357253, Compound 13] and `O=C(Nc1cc(OCCOc2ccc(NC(=O)c3ccc4nnnn4n3)c(C(=O)O)c2)ccc1C(=O)O)c1ccc2nnnn2n1` [US20230357253, Compound 31] cannot be ordered by IC50: > 1 µM for the first, > 1 µM for the second.

`O=C(Nc1cc(OCCOc2cc(C(=O)O)c(NC(=O)c3ccc4nnnn4n3)cc2F)ccc1C(=O)O)c1ccc2nnnn2n1` [US20230357253, Compound 26] and `O=C(Nc1cc(OCCCOc2ccc(C(=O)O)c(NC(=O)c3ccc4nnnn4n3)c2)ccc1C(=O)O)c1ccc2nnnn2n1` [US20230357253, Compound 28] cannot be ordered by IC50: > 1 µM for the first, > 1 µM for the second.

`O=C(Nc1cc(OCCc2c(F)cc(NC(=O)c3ccc(-n4ccnc4)nn3)c(C(=O)O)c2F)c(F)cc1C(=O)O)c1ccc(-n2ccnc2)nn1` [US20230357253, Compound 177] and `O=C(Nc1cc(OCCOc2cc(C(=O)O)c(NC(=O)c3ccc(-n4ccnc4)nn3)cc2F)c(F)cc1C(=O)O)c1ccc(-n2ccnc2)nn1` [US20230357253, Compound 191] cannot be ordered by IC50: < 0.01 µM for the first, < 0.01 µM for the second.

First: O=C(Nc1cc(CCCc2ccc(C(=O)O)c(NC(=O)c3ccc4nnnn4n3)c2)ccc1C(=O)O)c1ccc(-n2ccnc2)nn1 [US20230357253, Compound 63]
Second: O=C(Nc1cc(CCCc2cc(NC(=O)c3ccc4nnnn4n3)c(C(=O)O)cc2F)c(F)cc1C(=O)O)c1ccc(-n2ccnc2)nn1 [US20230357253, Compound 67]
The IC50 of the first is higher: > 1 µM for the first, < 0.01 µM for the second.

`O=C(Nc1cc(CCOc2cc(NC(=O)c3ccc(-c4cn[nH]c4)nn3)c(C(=O)O)cc2F)c(F)cc1C(=O)O)c1ccc(-c2cn[nH]c2)nn1` [US20230357253, Compound 4] and `O=C(Nc1cc(OCCc2cc(C(=O)O)c(NC(=O)c3ccc(-c4cn[nH]c4)nn3)cc2F)c(F)cc1C(=O)O)c1ccc(-c2cn[nH]c2)nn1` [US20230357253, Compound 204] cannot be ordered by IC50: < 0.01 µM for the first, < 0.01 µM for the second.

`COc1cc(C(=O)O)c(NC(=O)c2ccc(-n3ccnc3)nn2)cc1OCCc1cc(C(=O)O)c(NC(=O)c2ccc(-n3ccnc3)nn2)cc1C#N` [US20230357253, Compound 130] and `COc1cc(C(=O)O)c(NC(=O)c2ccc(-n3ccnc3)nn2)cc1OCCc1cc(C(=O)O)c(NC(=O)c2ccc(-n3ccnc3)nn2)cc1Cl` [US20230357253, Compound 156] cannot be ordered by IC50: < 0.01 µM for the first, < 0.01 µM for the second.

`COc1nc(C(=O)O)c(NC(=O)c2ccc(-n3ccnc3)nn2)cc1CCCc1cc(NC(=O)c2ccc(-n3ccnc3)nn2)c(C(=O)O)cc1F` [US20230357253, Compound 134] and `O=C(Nc1cc(CCCc2cc(NC(=O)c3ccc(-n4ccnc4)nn3)c(C(=O)O)cc2Cl)c(F)cc1C(=O)O)c1ccc(-n2ccnc2)nn1` [US20230357253, Compound 174] cannot be ordered by IC50: < 0.01 µM for the first, < 0.01 µM for the second.

`O=C(Nc1cc(CCCc2cc(C(=O)O)c(NC(=O)c3ccc(-n4ccnc4)nn3)cc2F)c(F)cc1C(=O)O)c1ccc(-n2ccnc2)nn1` [US20230357253, Compound 70] and `C=C(Cc1cc(NC(=O)c2ccc(-n3ccnc3)nn2)c(C(=O)O)cc1F)Cc1cc(NC(=O)c2ccc(-n3ccnc3)nn2)c(C(=O)O)cc1F` [US20230357253, Compound 199] cannot be ordered by IC50: < 0.01 µM for the first, < 0.01 µM for the second.

`O=C(Nc1cc(CCCOc2cc(NC(=O)c3ccc4nnnn4n3)c(C(=O)O)cc2F)c(F)cc1C(=O)O)c1ccc(-n2ccnc2)nn1` [US20230357253, Compound 126] and `O=C(Nc1cc(CCCc2cc(NC(=O)c3ccc(-n4ccnc4)nn3)c(C(=O)O)cc2F)c(F)cc1C(=O)O)c1ccc(-c2cn[nH]c2)nn1` [US20230357253, Compound 159] cannot be ordered by IC50: < 0.01 µM for the first, < 0.01 µM for the second.

Going from `O=C(Nc1cc(CCCc2cc(NC(=O)c3ccc(-n4ccnc4)nn3)c(C(=O)O)s2)c(F)cc1C(=O)O)c1ccc(-n2ccnc2)nn1` [US20230357253, Compound 164] to `O=C(Nc1cc(CC[S+]([O-])c2cc(NC(=O)c3ccc(-n4ccnc4)nn3)c(C(=O)O)cc2F)c(F)cc1C(=O)O)c1ccc(-n2ccnc2)nn1` (configuration not stated) [US20230357253, Compound 200], the IC50 rises from < 0.01 µM to > 1 µM. The first is the more potent here.

First: O=C(Nc1cc(OCCCCOc2ccc(C(=O)O)c(NC(=O)c3ccc(-n4ccnc4)nn3)c2)ccc1C(=O)O)c1ccc(O)nn1 [US20230357253, Compound 35]
Second: CC(Cc1cc(NC(=O)c2ccc(-n3ccnc3)nn2)c(C(=O)O)cc1F)Cc1cc(NC(=O)c2ccc(-n3ccnc3)nn2)c(C(=O)O)cc1F [US20230357253, Compound 194]
The IC50 of the first is higher: > 1 µM for the first, < 0.01 µM for the second. The second is the more potent here.

`O=C(Nc1cc(CCCc2cc(NC(=O)c3ccc(-n4ccnc4)nn3)c(C(=O)O)cc2F)c(F)cc1C(=O)O)c1ccc(N2CCNCC2)nn1` [US20230357253, Compound 214] and `O=C(Nc1cc(CCCc2cc(NC(=O)c3ccc(-n4ccnc4)nn3)c(C(=O)O)cc2F)c(F)cc1C(=O)O)c1ccc(N2CCOCC2)nn1` [US20230357253, Compound 212] cannot be ordered by IC50: > 1 µM for the first, > 1 µM for the second.
